According to patent publication US20090312521A1 (priority 2004, published 2009):
In brackets after ≈: the same amount, converted by molar mass. Non-standard residues stand in square brackets, D forms with d. Residues, ends and D or L forms follow the SMILES beside them. βAla = NCCC(=O)O

Key:
[1] = test system: Erwinia carotovora atroseptica; assay: Additional antimicrobial test (MIC); assay type: cell-based; conditions: Gram −, NB/BHI, 28/37 ° C.
Serratia marcescens = assay: Additional antimicrobial test (MIC); assay type: cell-based; conditions: Gram −, NB, 22 ° C.

CC[C@H](C)[C@H](NC(=O)[C@@H]1CCCN1C(=O)[C@H](CCCNC(=N)N)NC(=O)[C@@H]1CCCN1C(=O)[C@H](Cc1c[nH]cn1)NC(=O)[C@H](CO)NC(=O)[C@@H](NC(=O)[C@@H]1CCCN1C(=O)[C@H](CCCNC(=N)N)NC(=O)[C@@H]1CCCN1C(=O)[C@@H](NC(=O)[C@H](Cc1ccc(O)cc1)NC(=O)[C@@H]1CCCN1C(=O)[C@H](CCCNC(=N)N)NC(=O)[C@@H]1CCCN1C(=O)[C@H](CCCCN)NC(=O)CN)[C@@H](C)O)[C@@H](C)O)C(=O)N[C@@H](CCCNC(=N)N)C(=O)N[C@H](C(=O)O)C(C)C [Peptide 4, GKPRP YTPRP TSHPR PIRV] (H-GKPRPYTPRPTSHPRPIRV-OH; N-terminus assumed)
MIC [1]: NI at ≦100 μM
MIC (Erwinia herbicola): 6.75 µM (≈ 14.9 µg/mL)
MIC (Serratia marcescens): NI at ≦100 μM
MIC (Erwinia chrysanthemi): 50 µM (≈ 111 µg/mL)
MIC (Enterobacter aerogenes): 100 µM (≈ 221 µg/mL)

CC[C@H](C)[C@H](NC(=O)[C@@H]1CCCN1C(=O)[C@H](CCCNC(=N)N)NC(=O)[C@@H]1CCCN1C(=O)[C@H](Cc1c[nH]cn1)NC(=O)[C@H](CO)NC(=O)[C@@H](NC(=O)[C@@H]1CCCN1C(=O)[C@H](CCCNC(=N)N)NC(=O)[C@@H]1CCCN1C(=O)[C@@H](NC(=O)[C@H](Cc1ccc(O)cc1)NC(=O)[C@@H]1CCCN1C(=O)[C@H](CCCNC(=N)N)NC(=O)[C@@H]1CCCN1C(=O)[C@H](CCCCN)NC(=O)CCN)[C@@H](C)O)[C@@H](C)O)C(=O)N[C@@H](CCCNC(=N)N)C(=O)N[C@H](C(=O)O)C(C)C [Peptide 14, βAlaKPRP YTPRP TSHPR PIRV] (H-[βAla]KPRPYTPRPTSHPRPIRV-OH; N-terminus assumed)
MIC [1]: NI at ≦100 μM
MIC (Erwinia herbicola): 6.75 µM (≈ 15 µg/mL)
MIC (Serratia marcescens): NI at ≦100 μM
MIC (Erwinia chrysanthemi): 100 µM (≈ 223 µg/mL)
MIC (Enterobacter aerogenes): 100 µM (≈ 223 µg/mL)
